# Measured values published in patent US20180042918A1, “RESPIRATORY INFECTION TREATING AGENT” (KYORIN PHARMACEUTICAL CO., LTD., priority 2015, published 2018).
# Where two headings read alike, the source gives them in different places. Marks after values point to notes of the source that are not given here.
# Experiments:
# S. aureus ATCC29213 [1] = experiment: Frequency of development of resistant bacteria; format: cell-based, Staphylococcus aureus; settings: for development of resistant bacteria (in words): S. aureus ATCC29213, 4 to 16 × MIC; for FREQUENCY OF DEVELOPMENT OF RESISTANT BACTERIA (AVERAGE OF TWO MEASURED VALUES): about 70 hours
# Procedure: (§1) S. aureus ATCC29213 is Staphylococcus aureus, S. pneumoniae ATCC49619 is Streptococcus pneumoniae, and E. coli ATCC25922 is Escherichia coli. […]
# (§2) The frequency of development of resistant bacteria was calculated by dividing the number of colonies developed on an agar medium having each drug concentration by the number of initially inoculated bacteria.
# S. aureus MS5935 1st = experiment: microbe, parasite or virus in culture; format: cell-based; settings: Staphylococcus aureus, MS59351ST
# S. pneumoniae NF9884 = experiment: microbe, parasite or virus in culture; format: cell-based; settings: Streptococcus pneumoniae
# S. aureus MS5935 2nd = experiment: microbe, parasite or virus in culture; format: cell-based; settings: Staphylococcus aureus, MS59352ND
# [2] = target: Topoisomerase IV (S. aureus) (Staphylococcus aureus, UniProt P0C1S7+P0C1U9); experiment: Enzyme inhibitory activity, decatenation of kinetoplast DNA; format: biochemical
# Procedure: (§3) Agents Chemother. 45: 3544-3547 (2001). […] The measurement was performed in the same manner as in Test Example 3. Similarly, the inhibitory activities of ciproxacin, levofloxacin, and garenoxacin were measured. The results were compared.
# [3] = target: QUINOLONE RESISTANT Topoisomerase IV (S. aureus) (Staphylococcus aureus, UniProt P0C1U9); experiment: as above; format: biochemical
# Procedure: as §3
# S. pneumoniae KY-9 [4] = experiment: Antibacterial activity against Streptococcus pneumoniae in vitro, CLSI microdilution; format: cell-based; settings: KY9
# Procedure: The antibacterial activities in vitro of the compound D, garenoxacin, and levofloxacin against a strain in a mouse infected with Streptococcus pneumoniae (S. pneumonia KY-9) were measured in accordance with a CLSI microdilution method.
# S. pneumoniae ATCC49619 [5] = experiment: Frequency of development of resistant bacteria; format: cell-based, Streptococcus pneumoniae; settings: for FREQUENCY OF DEVELOPMENT OF RESISTANT BACTERIA (AVERAGE OF TWO MEASURED VALUES): about 70 hours
# Procedure: as §1, §2
# S. pneumoniae CF9842 = experiment: microbe, parasite or virus in culture; format: cell-based; settings: Streptococcus pneumoniae
# S. aureus MS5935 4th = experiment: microbe, parasite or virus in culture; format: cell-based; settings: for MIC: Staphylococcus aureus, MS59354TH
# S. pneumoniae GF9821 = experiment: microbe, parasite or virus in culture; format: cell-based; settings: Streptococcus pneumoniae
# [6] = system: S. aureus MS5935 gyrA mutant; experiment: microbe, parasite or virus in culture; format: cell-based; settings: Staphylococcus aureus
# S. pneumoniae IID553 = experiment: microbe, parasite or virus in culture; format: cell-based; settings: Streptococcus pneumoniae
# S. pneumoniae ATCC49619 [7] = experiment: microbe, parasite or virus in culture; format: cell-based; settings: Streptococcus pneumoniae
# S. pneumoniae SN9981 = experiment: microbe, parasite or virus in culture; format: cell-based; settings: Streptococcus pneumoniae
# [8] = target: DNA gyrase derived from S. pneumoniae IID553 (Streptococcus pneumoniae serotype 4, UniProt P0A4L9+P72524); experiment: Enzyme inhibitory activity, supercoiling of relaxed pBR322
# S. pneumoniae KY-9 [9] = experiment: Number of bacteria in the lung, mouse lung infection; format: in vivo, Streptococcus pneumoniae
# Procedure: S. pneumoniae KY-9 was inoculated at 7.4×10^5 CFU/mouse via the respiratory tract into the lung in a mouse in which cyclophosphamide had been administrated. 2.9 to 3.1 hours, 17.3 to 19.1 hours, and 24.4 to 26.1 hours after the inoculation, the drug (the compound D, levofloxacin, or garenoxacin) was subcutaneously administrated (SC) or orally administrated (PO) three times in total. The number of bacteria in the lung 16.5 to 17.0 hours after the final administration was measured.
# “*” described in FIGS. 1 and 2 means that a significant difference of p<0.05 in a Vehicle group was observed, and “**” means that a significant difference of p<0.001 in the Vehicle group was observed (Dunnett's multiple comparison test, parametric).
# Here, CFU is an abbreviation of Colony Forming Unit, and represents the unit of number of bacteria. Log CFU/Lung means the number of viable bacteria in the lung. Log CFU/Lung was determined as follows. The lung obtained from the mouse was homogenated to obtain a bacterial culture. The bacterial culture was appropriately diluted, applied to an agar plate medium, and cultured. Log CFU/Lung was determined on the basis of the number of developed colonies.
# [10] = target: DNA gyrase derived from S. aureus (Staphylococcus aureus, UniProt P0A0K8+P20831); experiment: Enzyme inhibitory activity, supercoiling of relaxed pBR322; format: biochemical
# Procedure: as §3
# [11] = target: QUINOLONE RESISTANT DNA gyrase (quinolone-resistant S. aureus) (Staphylococcus aureus, UniProt P20831); experiment: as above; format: biochemical
# Procedure: as §3
# E. coli ATCC25922 [12] = experiment: microbe, parasite or virus in culture; format: cell-based; settings: Escherichia coli
# S. aureus ATCC29213 [13] = experiment: MIC of strain used for resistance frequency test; format: cell-based; settings: Staphylococcus aureus; S. aureus ATCC29213; read-out: MIC
# [14] = target: Topoisomerase IV (S. pneumoniae IID553) (Streptococcus pneumoniae serotype 4, UniProt P72525+Q59961); experiment: Enzyme inhibitory activity, decatenation of kinetoplast DNA
# E. coli ATCC25922 [15] = experiment: Frequency of development of resistant bacteria; format: cell-based, Escherichia coli; settings: for FREQUENCY OF DEVELOPMENT OF RESISTANT BACTERIA (AVERAGE OF TWO MEASURED VALUES): about 70 hours
# Procedure: as §1, §2
# S. pneumoniae SF9863 = experiment: microbe, parasite or virus in culture; format: cell-based; settings: Streptococcus pneumoniae
# [16] = S. pneumoniae ATCC49619, 4 × MIC
# [17] = S. pneumoniae ATCC49619, 8 × MIC
# [18] = S. pneumoniae ATCC49619, 16 × MIC
Structure (SMILES),development of resistant bacteria (in words) (S. aureus ATCC29213 [1]),"FREQUENCY OF DEVELOPMENT OF RESISTANT BACTERIA (AVERAGE OF TWO MEASURED VALUES) (S. aureus ATCC29213 [1]; S. aureus ATCC29213, 4 × MIC)","FREQUENCY OF DEVELOPMENT OF RESISTANT BACTERIA (AVERAGE OF TWO MEASURED VALUES) (S. aureus ATCC29213 [1]; S. aureus ATCC29213, 8 × MIC)","FREQUENCY OF DEVELOPMENT OF RESISTANT BACTERIA (AVERAGE OF TWO MEASURED VALUES) (S. aureus ATCC29213 [1]; S. aureus ATCC29213, 16 × MIC)",MIC (S. aureus MS5935 1st),MIC (S. pneumoniae NF9884),MIC (S. aureus MS5935 2nd),MIC (S. pneumoniae KY-9 [4]),FREQUENCY OF DEVELOPMENT OF RESISTANT BACTERIA (AVERAGE OF TWO MEASURED VALUES) (S. pneumoniae ATCC49619 [5]; [16]),FREQUENCY OF DEVELOPMENT OF RESISTANT BACTERIA (AVERAGE OF TWO MEASURED VALUES) (S. pneumoniae ATCC49619 [5]; [17]),FREQUENCY OF DEVELOPMENT OF RESISTANT BACTERIA (AVERAGE OF TWO MEASURED VALUES) (S. pneumoniae ATCC49619 [5]; [18]),MIC (S. pneumoniae CF9842),MIC (S. aureus MS5935 4th),MIC (S. pneumoniae GF9821),MIC [6],MIC (S. pneumoniae IID553),MIC (S. pneumoniae ATCC49619 [7]),MIC (S. pneumoniae SN9981),IC50 [8],MIC (E. coli ATCC25922 [12]),other results
"COc1c(N2C[C@H](CNC3CC3)[C@H](F)C2)c(F)cc2c(=O)c(C(=O)O)cn(CCF)c12.Cl [Compound D, 7-[(3S,4S)-3-{(cyclopropylamino)methyl}-4-fluoropyrrolidine-1-yl]-6-fluoro-1-(2-fluoroethyl)-8-methoxy-4-oxo-1,4-dihydroquinoline-3-carboxylic acid hydrochloride]",not observed,<2.1 × 10^−9,<2.1 × 10^−9,<2.1 × 10^−9,0.03 µg/mL,0.125 µg/mL,0.125 µg/mL,0.06 µg/mL,<1.1 × 10^−8,<1.1 × 10^−8,<1.1 × 10^−8,0.06 µg/mL,2 µg/mL,0.125 µg/mL,0.03 µg/mL,0.06 µg/mL,0.06 µg/mL,0.25 µg/mL,12.6 µM,0.06 µg/mL,"IC50 [2]: 1.53 µM; IC50 ([3]; read-out: IC50 VALUE, QUINOLONE RESISTANT Topoisomerase IV): 5.88 µM; development of resistant bacteria (in words) (S. pneumoniae ATCC49619 [5]; S. pneumoniae ATCC49619, 4 to 16 × MIC): not observed; potency (action strength) relative to the other quinolone compounds (S. aureus MS5935 4th; 4th step quadruple mutant S. aureus, from MIC): ≥ 16 times; therapeutic effect, number of bacteria in the lung (S. pneumoniae KY-9 [9]; oral administration): excellent as compared with garenoxacin and levofloxacin; decrease in number of bacteria in the lung versus Vehicle (S. pneumoniae KY-9 [9]; subcutaneous, 6.3 mg and 25 mg/kg): significant dose-dependent decrease; difference in number of viable bacteria in the lung, compound D versus garenoxacin (S. pneumoniae KY-9 [9]; subcutaneous, 25 mg/kg groups): about 1,000 times; IC50 [10]: 3.57 µM; IC50 ([11]; read-out: IC50 VALUE, QUINOLONE RESISTANT DNA gyrase, average of three or average ± SD): 35.7 µM; MIC (S. aureus ATCC29213 [13]): 0.008 µg/mL; IC50 [14]: 2.73 µM; development of resistant bacteria (in words) (E. coli ATCC25922 [15]; E. coli ATCC25922, 4 to 16 × MIC): not observed; FREQUENCY OF DEVELOPMENT OF RESISTANT BACTERIA (AVERAGE OF TWO MEASURED VALUES) (E. coli ATCC25922 [15]; E. coli ATCC25922, 4 × MIC): <1.9 × 10^−9; FREQUENCY OF DEVELOPMENT OF RESISTANT BACTERIA (AVERAGE OF TWO MEASURED VALUES) (E. coli ATCC25922 [15]; E. coli ATCC25922, 8 × MIC): <1.9 × 10^−9; FREQUENCY OF DEVELOPMENT OF RESISTANT BACTERIA (AVERAGE OF TWO MEASURED VALUES) (E. coli ATCC25922 [15]; E. coli ATCC25922, 16 × MIC): <1.9 × 10^−9; MIC (S. pneumoniae SF9863): 0.06 µg/mL"
"C[C@H]1NCc2cc(-c3ccc4c(=O)c(C(=O)O)cn(C5CC5)c4c3OC(F)F)ccc21 [GRNX, garenoxacin]",developed,8.2 × 10^−9*,<2.1 × 10^−9,<2.1 × 10^−9,0.03 µg/mL,0.125 µg/mL,2 µg/mL,0.03 µg/mL,<1.1 × 10^−8,<1.1 × 10^−8,<1.1 × 10^−8,0.125 µg/mL,32 µg/mL,0.25 µg/mL,0.06 µg/mL,0.06 µg/mL,0.06 µg/mL,1 µg/mL,84.4 µM,0.03 µg/mL,"IC50 ([2]; S. aureus enzyme, read-out: IC50 VALUE, Topoisomerase IV (converted)): 4.46 µM; IC50 ([3]; read-out: IC50 VALUE, QUINOLONE RESISTANT Topoisomerase IV (converted)): 63.3 µM; significant decrease in number of bacteria in the lung versus Vehicle (S. pneumoniae KY-9 [9]; subcutaneous, 6.3 mg/kg): not observed; significant decrease in number of bacteria in the lung versus Vehicle (S. pneumoniae KY-9 [9]; subcutaneous, 25 mg/kg): a significant decrease in number of bacteria in the lung was observed; IC50 ([10]; S. aureus enzyme, average of three or average ± SD, read-out: IC50 VALUE, DNA gyrase (converted)): 25.8 µM; IC50 ([11]; average of three or average ± SD, read-out: IC50 VALUE, QUINOLONE RESISTANT DNA gyrase (converted)): 985 µM; MIC (S. aureus ATCC29213 [13]): 0.015 µg/mL; IC50 [14]: 5.16 µM; FREQUENCY OF DEVELOPMENT OF RESISTANT BACTERIA (AVERAGE OF TWO MEASURED VALUES) (E. coli ATCC25922 [15]; E. coli ATCC25922, 4 × MIC): <1.9 × 10^−9; FREQUENCY OF DEVELOPMENT OF RESISTANT BACTERIA (AVERAGE OF TWO MEASURED VALUES) (E. coli ATCC25922 [15]; E. coli ATCC25922, 8 × MIC): <1.9 × 10^−9; FREQUENCY OF DEVELOPMENT OF RESISTANT BACTERIA (AVERAGE OF TWO MEASURED VALUES) (E. coli ATCC25922 [15]; E. coli ATCC25922, 16 × MIC): <1.9 × 10^−9; MIC (S. pneumoniae SF9863): 0.25 µg/mL"
